Measurements reported in patent US20240228536A1, “PEPTIDES FOR USE IN SKIN AND HAIR PIGMENTATION” (Follicum AB, priority 2020, published 2024).

What was measured:
Assay type in all cases: cell-based, human
[1] = tested on: Melanoderms Mel-300-A (donor); experiment: Skin equivalent culture, peptides in formulation, photographic assessment of pigmentation; settings: 7 days; for pigmentation of SEs (visual assessment), response by concentration: 0.4%, 1% and 2% in formulation B, relative to vehicle controls; for pigmentation of SEs (visual assessment): in formulation B, 25 μl topical, vs formulation B only and peptide dissolved in water (10 mg/ml)
Method: Pigmented skin equivalents (SEs), Melanoderms Mel-300-A (donor) were obtained from Mattek Ltd together with the associated media […]-113 and hanging well plates. The skin equivalent surface area was 63.6 mm^2. Other equipment used included SMZ1000 Stereo 10 Microscope (Nikon); UC30 Microscope Camera (Olympus); Sterile Phosphate-Buffered Saline (PBS, Thermofisher, UK); 12-well Tissue Culture Plates (Sarstedt). All incubations were carried out in a humidified incubator maintained at 37° C. with 5% CO2. Pure peptide (>99%) was obtained from Biomatik, USA as acetate salt. The Melanoderms were prepared by carefully removing the agarose with sterile forceps and placing in 5 ml pre-warmed culture medium in hanging plates and incubated overnight. […] The tissue surface was photographed using an Olympus camera system attached to an inverted microscope to record initial pigmentation levels. SEs were transferred back to hanging well plates containing 5 ml fresh media. Three SEs were removed to provide baseline day 0 controls for analysis using WS staining and qPCR analysis. SEs (n=3 per treatment) were topically treated for 7 days with 25 μl of the various peptide concentrations in formulations as prepared in Example 12 in parallel with relevant controls. […] Each formulation was applied to the surface of SEs using a positive displacement pipette and spread evenly using a sterile microbiological loop. SEs were maintained at 37° C., 5% CO2 in a humidified incubator with media refreshed every other day until the end of treatment. On day 7 SEs were removed from culture and formulation carefully removed using a sterile microbiological loop and the surface rinsed in PBS then blotted dry with a sterile cotton bud. […] The pigmentation of the Melanoderms was macroscopically assessed by capturing high-resolution images using the Olympus microscope camera.

Melanoderm SEs = experiment: Warthin-Starry silver staining of melanin granules in Melanoderms; settings: in formulation B at all three concentrations (0.4%, 1%, 2%), 7 days, compared to formulation only
Method: Tissue from each Melanoderm of Example 13 was carefully cut from inserts using a sterile scalpel blade (no. 11) and cut in half. One half was submerged overnight at −20° C. in RNAlater solution (Qiagen, UK) for RNA stabilization. The following day excess RNAlater solution was removed, and samples stored at −80° C. until RNA extracted for qPCR. The second half of each tissue was fixed overnight in 10% neutral buffered formalin then processed for wax embedding, sectioning, and Warthin-Starry staining.
All reagents used were of research grade quality and obtained from Sigma, UK. For silver staining high purity photo-grade (>99%) Silver nitrate was used. All reagents were prepared in acidulated (citrulated) distilled water (approx. 1 ml/L of 1% Citric acid was added to distilled water to change the pH to 3.4). Other equipment used were two water baths pre-set at 43° C. and 54° C., plastic staining tubs and slide racks for incubating slides, magnetic stirrers, and calibrated pH meter.
Melanin in tissue sections was stained using the modified Warthin-Starry staining method (Warthin, A. et al., Am. J. Syph. (1920) 4:97-103; Warkel, R. et al., Am. J. Clin. Path. (1980) 73 June (6): 812-5.). Briefly, 7 μm tissue sections were cut from wax blocks and floated onto charged slides (Leica Xtra clipped corner glass slides). […]

skin equivalents (SEs) = experiment: H&E and Warthin Starry staining of skin equivalents; settings: day 20
Source text: Two skin equivalents (SEs) were used from one donor.
The analysis was achieved using the Warthin Starry assay using our recently published method (Joly-Tonetti et al 2016) and hematoxylin&eosin (H&E) staining.
The SEs were stained with Warthin Starry stain to visualise and quantify the melanin in sections. The SEs were removed from culture on day 20 and washed in PBS. They were then flash frozen in liquid nitrogen and mounted in OCT for sectioning. 10 μm sections were cut using a cryostat, the sections collected on slides and fixed in Acetone for 10 mins. The OCT was removed from the section by washing in acidulated water for 20 mins. The slides were then incubated in 1% silver nitrate solution for 1 hour at 43° C. […] The slides were stained for 2 mins then the staining was stopped by running the slides under hot tap water. Slides were then mounted using Histomount. Brightfield images were captured using a Nikon Eclipse microscope. Image analysis of the melanin density in sections was performed using Image J and densitometric thresholding. Results are presented in pixel intensity units. For the hematoxylin&eosin (H&E) staining, the SEs were flash frozen, sectioned and fixed as above. The slides were then washed in dH2O to remove the OCT for 20 mins. Haematoxylin was filtered using filter paper into a Coplin jar. Further Coplin jars were also prepared containing the following: Tap Water, Scott's Tap Water, 0.25% Eosin, 50% Ethanol, 70% Ethanol, 90% Ethanol, Ethanol and Histoclear. The slides were then placed into Haematoxylin for 2 mins, and then placed into tap water for 30 secs, Scott's Tap Water for 1 min & Eosin for 2 mins. The slides were then dehydrated through the Ethanol (1 min each) then placed into Histoclear for 2 mins and mounted using Histomount. Brightfield images were captured using a Nikon Eclipse microscope.

| Substance | pigmentation of SEs (visual assessment), response by concentration [1] | pigmentation of SEs (visual assessment) [1] | melanin in epidermal layers (Warthin-Starry) (Melanoderm SEs) | melanin content and distribution in SE sections (Warthin Starry) (skin equivalents (SEs); second donor (FIG. 3B-D)) | melanin content and distribution in SE sections (Warthin Starry) (skin equivalents (SEs); one of the donors (FIG. 3A)) |
| --- | --- | --- | --- | --- | --- |
| Asn-Ala-His-Met (NAHM; (1)..(4) Peptide 1) | highest response at the higher 1% and 2% concentrations | more pigmented than the vehicle control | modest increase in melanin in the basal and stratum spinosum layers | visibly increased melanin content | – |
| Asn-Ala-Ala-Met (NAAM; (1)..(4) Peptide 4) | approximately equal increase in pigmentation relative to vehicle controls | more pigmented than the vehicle control | greater increase in melanin in all layers of the epidermis | visibly increased melanin content | increased the melanin content in the SEs across all layers |
